{"source": "paper PMC5323398", "about": "“Restoration of Epithelial Sodium Channel Function by Synthetic Peptides in Pseudohypoaldosteronism Type 1B Mutants” (Frontiers in Pharmacology, 2017)", "key": {"[1]": {"target": "T1, αQ101K mutant hENaC (Homo sapiens, UniProt P37088+P51168+P51170, Q101K)", "T1 construct": "expressed in transfected cells", "T1 sequence (P37088 1-669 Q101K)": "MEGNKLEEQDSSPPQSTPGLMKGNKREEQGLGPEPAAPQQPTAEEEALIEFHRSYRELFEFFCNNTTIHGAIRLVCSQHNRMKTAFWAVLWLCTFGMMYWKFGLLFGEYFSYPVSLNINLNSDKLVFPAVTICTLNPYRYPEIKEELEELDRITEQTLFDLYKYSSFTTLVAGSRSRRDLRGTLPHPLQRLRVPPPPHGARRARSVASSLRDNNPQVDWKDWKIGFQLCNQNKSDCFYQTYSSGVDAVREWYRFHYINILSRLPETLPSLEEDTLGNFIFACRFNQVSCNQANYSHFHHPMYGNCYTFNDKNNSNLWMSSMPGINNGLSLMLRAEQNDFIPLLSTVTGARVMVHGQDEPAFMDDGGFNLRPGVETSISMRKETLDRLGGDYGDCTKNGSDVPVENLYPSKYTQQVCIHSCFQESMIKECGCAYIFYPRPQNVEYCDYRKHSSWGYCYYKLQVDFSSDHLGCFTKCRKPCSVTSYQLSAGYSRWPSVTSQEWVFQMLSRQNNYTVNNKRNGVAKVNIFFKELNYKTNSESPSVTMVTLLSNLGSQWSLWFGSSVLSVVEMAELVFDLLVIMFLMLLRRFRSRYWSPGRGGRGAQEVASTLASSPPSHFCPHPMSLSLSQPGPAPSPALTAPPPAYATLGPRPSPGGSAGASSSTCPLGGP", "T1 sequence (P51168 1-640)": "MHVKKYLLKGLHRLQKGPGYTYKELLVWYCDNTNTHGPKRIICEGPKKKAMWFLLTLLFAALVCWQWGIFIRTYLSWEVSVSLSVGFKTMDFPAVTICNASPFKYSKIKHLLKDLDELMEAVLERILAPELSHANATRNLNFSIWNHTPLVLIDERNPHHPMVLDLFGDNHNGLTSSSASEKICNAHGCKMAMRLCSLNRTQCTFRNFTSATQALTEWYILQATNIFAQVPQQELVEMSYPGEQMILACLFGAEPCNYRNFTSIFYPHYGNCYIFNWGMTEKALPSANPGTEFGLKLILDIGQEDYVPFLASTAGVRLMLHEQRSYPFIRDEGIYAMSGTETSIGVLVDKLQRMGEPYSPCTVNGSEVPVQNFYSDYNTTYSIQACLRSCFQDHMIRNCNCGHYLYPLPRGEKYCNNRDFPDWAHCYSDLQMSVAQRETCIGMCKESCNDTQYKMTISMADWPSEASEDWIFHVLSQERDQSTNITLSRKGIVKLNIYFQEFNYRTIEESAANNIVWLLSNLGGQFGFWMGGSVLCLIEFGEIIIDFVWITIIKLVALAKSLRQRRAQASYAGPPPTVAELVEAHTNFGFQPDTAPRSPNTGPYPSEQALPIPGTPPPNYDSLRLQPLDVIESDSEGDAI", "T1 sequence (P51170 1-649)": "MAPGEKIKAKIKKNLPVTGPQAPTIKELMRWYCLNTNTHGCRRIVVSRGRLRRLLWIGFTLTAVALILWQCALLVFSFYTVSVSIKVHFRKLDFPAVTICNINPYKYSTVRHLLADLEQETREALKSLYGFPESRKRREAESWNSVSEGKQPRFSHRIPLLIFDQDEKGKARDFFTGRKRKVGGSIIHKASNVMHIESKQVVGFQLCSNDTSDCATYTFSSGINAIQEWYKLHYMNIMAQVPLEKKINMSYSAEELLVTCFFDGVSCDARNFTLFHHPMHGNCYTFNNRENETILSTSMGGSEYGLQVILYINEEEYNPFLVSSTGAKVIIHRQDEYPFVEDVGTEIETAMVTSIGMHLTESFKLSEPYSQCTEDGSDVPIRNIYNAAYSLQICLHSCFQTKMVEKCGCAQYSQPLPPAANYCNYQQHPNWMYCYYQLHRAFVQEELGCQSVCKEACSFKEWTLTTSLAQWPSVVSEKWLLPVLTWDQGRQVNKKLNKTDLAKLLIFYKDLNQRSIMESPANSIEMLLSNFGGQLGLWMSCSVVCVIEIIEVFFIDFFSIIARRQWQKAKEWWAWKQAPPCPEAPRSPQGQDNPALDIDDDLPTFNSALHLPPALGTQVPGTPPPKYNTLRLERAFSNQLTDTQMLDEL", "test": "Whole-cell patch clamp, amiloride-sensitive Na+ current, αQ101K ENaC", "type": "cell-based", "conditions": "αQ101K activated by solnatide; 10 μM amiloride", "method": "(§1) Human embryonic kidney HEK-293 cells (ATCC no. CRL-1573) in passages 3–25, were seeded in Dulbecco's modified Eagle medium/F12 nutrient mixture Ham plus L-glutamine (DMEM/F-12; Gibco™ by Life Technologies, LifeTech Austria), supplemented with 10% fetal bovine serum (FBS; Gibco™ by Life Technologies, LifeTech Austria) and 1% penicillin-streptomycin (Sigma-Aldrich, Vienna, Austria). Cells were maintained at 37°C with 5% CO2 in a humidified incubator.\n(§2) Point mutations and single base (insertions or) deletions, causing a frameshift, were introduced into cDNA encoding α-, β-, or γ-hENaC using QuikChange Lightning Site-Directed Mutagenesis Kit (Agilent Technologies, CA, USA). Pairs of mutagenic primers were designed individually with the Primer Design Program provided on the producer's website. The same bases were changed as reported in patients or at least resulting in the same protein products. The designed primers were ordered after checking their properties using the DNA Oligos Design Tool from Sigma-Aldrich, Vienna, Austria (Table 1).\n(§3) HEK-293 cells were transfected 1 day after cell seeding using X-tremeGENE HP DNA transfection reagent (Roche Diagnostics, Mannheim, Germany) according to the manufacturer's protocol. […]"}, "[2]": {"target": "T2, αG327C mutant hENaC (Homo sapiens, UniProt P37088+P51168+P51170, G327C)", "T2 construct": "expressed in transfected cells", "T2 sequence (P37088 1-669 G327C)": "T1 sequence (P37088 1-669 Q101K) with K101Q, G327C", "T2 sequence (P51168 1-640)": "T1 sequence (P51168 1-640)", "T2 sequence (P51170 1-649)": "T1 sequence (P51170 1-649)", "test": "Whole-cell patch clamp, amiloride-sensitive Na+ current, αG327C ENaC", "type": "cell-based", "conditions": "αG327C activated by AP318; 10 μM amiloride", "method": "as §1, §2, §3"}, "[3]": {"system": "mock-transfected HEK-293 cells", "test": "Whole-cell current of mock-transfected cells", "type": "cell-based, human", "protocol": "Whole-cell currents were recorded from transfected HEK-293 cells with an Axopatch 200B amplifier, DigiData 1440A and pCLAMP10.2 software (Axon Instruments, Union City, CA) at room temperature (19–22°C) 48–72 h after transfection. Currents were recorded at 10 kHz and filtered at 5 kHz. The chamber contained 1 ml bath solution of the following composition (in mM): 145 NaCl, 2.7 KCl, 1.8 CaCl2, 2 MgCl2, 5.5 glucose, and 10 HEPES, adjusted to pH 7.4 with 1 M NaOH solution. The borosilicate glass patch pipettes (Harvard Apparatus, Holliston, MA) had resistances of 2–4 MΩ. The pipette solution contained (in mM): 135 potassium methane sulphonate, 10 KCl, 6 NaCl, 1Mg2ATP, 2 Na3ATP, 10 HEPES, and 0.5 EGTA, adjusted to pH 7.2 with 1 M KOH solution. Data acquisition and storage were processed directly to a PC. […] Differences were evaluated by one-way ANOVA followed by Tukey's post-hoc test."}, "[4]": {"target": "human ENaC with the frameshift γV543fs (γ subunit of 597 residues, abnormal sequence after S542), co-expressed with WT α and β subunits (human) (UniProt P37088)"}}, "note": "Positions count from the first letter of the chain named.", "data": [{"compound": "N=C(N)NC(=O)c1nc(Cl)c(N)nc1N", "note": "[amiloride]", "values": [{"measurement": "block of peptide-induced activation", "setting": "[1]", "value": "can be blocked by 10 μM amiloride"}, {"measurement": "block of peptide-induced activation", "setting": "[2]", "value": "can be blocked by 10 μM amiloride"}, {"measurement": "amiloride-sensitive or peptide-induced current", "setting": "[3]; 10 μM amiloride or 200 nM peptide", "value": "about zero"}, {"measurement": "whole-cell current", "setting": "[3]; 10 μM amiloride, control 11.28 ± 5.68 pA", "value": "10.47 ± 6.23", "unit": "pA"}]}, {"compound": "AP318 (peptide)", "values": [{"measurement": "EC50 of the increase of amiloride-sensitive Na+ current, whole-cell patch clamp at -100 mV, transfected HEK-293 cells, peptide 2-200 nM", "setting": "[4]", "value": 47.7, "unit": "nM"}]}]}
